The record followed here is ChEMBL document CHEMBL5696442, “Discovery of type II inhibitors of TGFβ-activated kinase 1 (TAK1) and mitogen-activated protein kinase kinase kinase kinase 2 (MAP4K2)” (J Med Chem, 2015).

The inhibition is the change of the read-out against control, counted positive when it falls. By residual activity is commonly meant the share of the control activity or signal that is left under treatment. A high value points to a small loss of activity.

Active and inactive are the calls of the source. The rule behind the calls is not given here.

Experiment [1] concerns the target Serine/threonine-protein kinase 4 (Homo sapiens) (UniProt Q13043). The experiment is described as follows: Inhibition of MST1 Lys1 labeling site harbouring AIHKETGQIVAIKQVPVESDLQEIIK in human A-375 cells at 0.05 uM by KiNativ Profiling analysis relative to control.
Experiment [2] addresses Cyclin-dependent kinase 6 (Homo sapiens) (UniProt Q00534). The experiment is described as follows: Inhibition of CDK6 Lys2 labeling site in human A-375 cells at 0.05 uM by KiNativ Profiling analysis relative to control. The class given is cell-based.
The target of experiment [3] is T1, Phosphatidylinositol 4,5-bisphosphate 3-kinase catalytic subunit delta isoform (Homo sapiens) (UniProt O00329).
T1 sequence (whole entry): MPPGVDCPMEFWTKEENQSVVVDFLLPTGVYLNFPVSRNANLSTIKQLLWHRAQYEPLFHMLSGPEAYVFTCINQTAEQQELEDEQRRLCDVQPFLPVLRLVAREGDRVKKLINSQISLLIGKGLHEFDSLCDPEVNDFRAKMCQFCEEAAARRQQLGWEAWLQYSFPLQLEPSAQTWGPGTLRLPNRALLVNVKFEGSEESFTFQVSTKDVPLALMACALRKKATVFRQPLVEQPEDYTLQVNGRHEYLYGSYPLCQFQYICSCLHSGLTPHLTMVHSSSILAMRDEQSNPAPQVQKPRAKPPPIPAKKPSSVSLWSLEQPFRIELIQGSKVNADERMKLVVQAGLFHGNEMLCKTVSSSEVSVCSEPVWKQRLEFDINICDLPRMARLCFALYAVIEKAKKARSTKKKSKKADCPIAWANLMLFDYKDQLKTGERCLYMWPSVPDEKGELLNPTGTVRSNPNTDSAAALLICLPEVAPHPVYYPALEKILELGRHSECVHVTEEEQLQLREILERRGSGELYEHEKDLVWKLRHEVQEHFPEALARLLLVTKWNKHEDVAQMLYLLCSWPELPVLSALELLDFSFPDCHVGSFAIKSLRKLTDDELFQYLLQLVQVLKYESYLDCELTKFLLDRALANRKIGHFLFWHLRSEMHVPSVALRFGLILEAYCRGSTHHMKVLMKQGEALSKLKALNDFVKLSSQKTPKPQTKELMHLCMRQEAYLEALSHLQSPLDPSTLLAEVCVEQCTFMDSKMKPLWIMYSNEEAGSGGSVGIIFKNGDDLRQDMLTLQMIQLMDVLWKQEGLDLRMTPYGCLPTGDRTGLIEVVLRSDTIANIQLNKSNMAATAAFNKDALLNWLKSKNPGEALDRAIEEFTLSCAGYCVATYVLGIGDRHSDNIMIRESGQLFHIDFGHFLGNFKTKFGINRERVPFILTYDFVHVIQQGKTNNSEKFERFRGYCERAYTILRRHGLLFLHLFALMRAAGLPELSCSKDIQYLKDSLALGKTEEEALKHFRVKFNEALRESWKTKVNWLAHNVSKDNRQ
The experiment is described as follows: Inhibition of PIK3CD ATP labeling site in human A-375 cells at 0.5 uM by KiNativ Profiling analysis relative to control. The class given is cell-based.

Experiment [4] addresses T2, Inhibitor of nuclear factor kappa-B kinase subunit alpha (Homo sapiens) (UniProt O15111).
T2 sequence (whole entry): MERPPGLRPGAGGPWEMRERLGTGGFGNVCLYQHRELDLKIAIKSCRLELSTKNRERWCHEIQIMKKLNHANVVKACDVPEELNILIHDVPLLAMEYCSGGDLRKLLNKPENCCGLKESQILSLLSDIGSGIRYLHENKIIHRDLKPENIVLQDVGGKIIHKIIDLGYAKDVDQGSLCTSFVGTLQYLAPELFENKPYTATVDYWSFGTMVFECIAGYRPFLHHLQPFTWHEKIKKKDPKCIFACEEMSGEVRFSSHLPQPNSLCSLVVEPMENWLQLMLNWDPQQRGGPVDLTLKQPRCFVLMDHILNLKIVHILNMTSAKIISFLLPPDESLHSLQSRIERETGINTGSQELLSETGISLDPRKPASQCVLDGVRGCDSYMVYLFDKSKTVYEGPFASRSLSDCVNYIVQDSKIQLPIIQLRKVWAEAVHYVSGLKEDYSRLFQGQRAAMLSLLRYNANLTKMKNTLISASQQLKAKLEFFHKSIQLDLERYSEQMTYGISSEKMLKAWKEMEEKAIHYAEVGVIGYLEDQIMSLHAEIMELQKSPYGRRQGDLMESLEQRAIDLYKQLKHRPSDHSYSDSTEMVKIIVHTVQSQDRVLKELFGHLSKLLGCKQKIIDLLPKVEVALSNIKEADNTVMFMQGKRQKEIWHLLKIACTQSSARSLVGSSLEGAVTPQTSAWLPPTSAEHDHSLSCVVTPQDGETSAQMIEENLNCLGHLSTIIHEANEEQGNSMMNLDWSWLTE
The experiment is described as follows: Inhibition of IKK-alpha (unknown origin) at 1 uM by Ambit Kinomescan binding assay relative to control; values are per cent of control.

Experiment [5] has as its target Serine/threonine-protein kinase SMG1 (Homo sapiens) (UniProt Q96Q15). The experiment is described as follows: Inhibition of SMG1 ATP labeling site harbouring SYPYLFKGLEDLHLDER in human A-375 cells at 5 uM by KiNativ Profiling analysis relative to control. The class given is cell-based.
Experiment [6] concerns the target T3, Serine/threonine-protein kinase 3 (Homo sapiens) (UniProt Q13188).
T3 sequence (whole entry): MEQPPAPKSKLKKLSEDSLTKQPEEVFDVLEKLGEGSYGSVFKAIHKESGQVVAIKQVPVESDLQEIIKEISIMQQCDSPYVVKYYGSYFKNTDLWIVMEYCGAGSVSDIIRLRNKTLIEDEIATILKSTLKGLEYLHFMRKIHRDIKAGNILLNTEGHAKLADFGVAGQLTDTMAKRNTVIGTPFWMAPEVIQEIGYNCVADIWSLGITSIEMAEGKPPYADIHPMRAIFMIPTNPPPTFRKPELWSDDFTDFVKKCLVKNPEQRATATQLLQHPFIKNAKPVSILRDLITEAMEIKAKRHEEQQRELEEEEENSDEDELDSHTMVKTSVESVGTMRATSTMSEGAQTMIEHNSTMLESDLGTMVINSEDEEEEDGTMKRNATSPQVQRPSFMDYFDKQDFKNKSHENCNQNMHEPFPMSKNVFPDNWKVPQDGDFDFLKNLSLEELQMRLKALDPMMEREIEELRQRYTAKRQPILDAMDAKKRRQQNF
The experiment is described as follows: Inhibition of MST2 (unknown origin) at 10 uM by Ambit Kinomescan binding assay.

In experiment [7] the target is cGMP-dependent protein kinase 2 (Homo sapiens) (UniProt Q13237). Nature of the experiment: Inhibition of PRKG2 (unknown origin) at 10 uM by Ambit Kinomescan binding assay.
In experiment [8] the target is Interferon-induced, double-stranded RNA-activated protein kinase (Homo sapiens) (UniProt P19525). The experiment is described as follows: Inhibition of PKR Lys2 labeling site in human A-375 cells at 0.05 uM by KiNativ Profiling analysis relative to control. Type of experiment: cell-based.
In experiment [9] the target is Serine/threonine-protein kinase PLK1 (Homo sapiens) (UniProt P53350). The experiment is described as follows: Inhibition of PLK1 Lys1 labeling site harbouring EVFAGKIVPK in human Huh-7 cell lysate at 1 uM by KiNativ Profiling analysis relative to control. The class given is subcellular.
Chain of Serine/threonine-protein kinase PLK1 (Homo sapiens) (P53350 whole entry): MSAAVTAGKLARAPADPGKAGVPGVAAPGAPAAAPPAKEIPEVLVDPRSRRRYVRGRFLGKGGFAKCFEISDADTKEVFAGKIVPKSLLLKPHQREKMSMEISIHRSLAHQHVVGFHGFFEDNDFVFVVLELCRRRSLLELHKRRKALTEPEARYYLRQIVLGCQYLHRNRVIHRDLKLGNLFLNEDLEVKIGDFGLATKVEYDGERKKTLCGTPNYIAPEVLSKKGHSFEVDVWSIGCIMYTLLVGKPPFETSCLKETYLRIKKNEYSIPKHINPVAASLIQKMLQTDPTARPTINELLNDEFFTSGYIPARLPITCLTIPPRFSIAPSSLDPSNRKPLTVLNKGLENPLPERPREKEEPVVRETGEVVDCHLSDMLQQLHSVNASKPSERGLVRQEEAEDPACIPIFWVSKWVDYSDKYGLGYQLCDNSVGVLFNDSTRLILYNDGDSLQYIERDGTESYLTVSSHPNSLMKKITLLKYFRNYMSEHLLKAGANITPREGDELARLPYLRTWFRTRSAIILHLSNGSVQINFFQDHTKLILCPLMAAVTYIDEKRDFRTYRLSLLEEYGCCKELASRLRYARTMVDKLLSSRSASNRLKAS

Chain of Interferon-induced, double-stranded RNA-activated protein kinase (Homo sapiens) (P19525 whole entry): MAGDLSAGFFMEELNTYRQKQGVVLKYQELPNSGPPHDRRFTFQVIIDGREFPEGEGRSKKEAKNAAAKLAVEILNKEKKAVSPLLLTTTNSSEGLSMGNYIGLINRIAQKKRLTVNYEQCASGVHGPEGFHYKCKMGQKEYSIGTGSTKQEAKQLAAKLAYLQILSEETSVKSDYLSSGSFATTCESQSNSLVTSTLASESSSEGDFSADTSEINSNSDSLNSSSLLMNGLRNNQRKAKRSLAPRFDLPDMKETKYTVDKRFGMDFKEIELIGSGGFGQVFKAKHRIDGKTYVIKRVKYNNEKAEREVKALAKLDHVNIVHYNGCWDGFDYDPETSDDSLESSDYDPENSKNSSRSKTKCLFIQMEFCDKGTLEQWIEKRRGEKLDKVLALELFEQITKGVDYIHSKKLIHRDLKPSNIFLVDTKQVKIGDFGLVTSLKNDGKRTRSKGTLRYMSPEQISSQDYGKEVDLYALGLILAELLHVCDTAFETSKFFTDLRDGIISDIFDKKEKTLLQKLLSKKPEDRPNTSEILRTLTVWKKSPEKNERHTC
Chain of Cyclin-dependent kinase 6 (Homo sapiens) (Q00534 whole entry, canonical isoform): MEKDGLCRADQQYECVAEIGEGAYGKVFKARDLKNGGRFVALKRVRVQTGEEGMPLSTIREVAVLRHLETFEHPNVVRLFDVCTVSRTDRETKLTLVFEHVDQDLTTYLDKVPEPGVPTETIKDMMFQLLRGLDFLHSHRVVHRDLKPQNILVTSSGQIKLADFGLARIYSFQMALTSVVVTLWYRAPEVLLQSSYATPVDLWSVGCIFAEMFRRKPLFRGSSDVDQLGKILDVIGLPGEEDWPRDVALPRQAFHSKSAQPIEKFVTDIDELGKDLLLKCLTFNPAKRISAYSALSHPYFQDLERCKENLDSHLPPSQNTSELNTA
Chain of Serine/threonine-protein kinase 4 (Homo sapiens) (Q13043 whole entry, looked up): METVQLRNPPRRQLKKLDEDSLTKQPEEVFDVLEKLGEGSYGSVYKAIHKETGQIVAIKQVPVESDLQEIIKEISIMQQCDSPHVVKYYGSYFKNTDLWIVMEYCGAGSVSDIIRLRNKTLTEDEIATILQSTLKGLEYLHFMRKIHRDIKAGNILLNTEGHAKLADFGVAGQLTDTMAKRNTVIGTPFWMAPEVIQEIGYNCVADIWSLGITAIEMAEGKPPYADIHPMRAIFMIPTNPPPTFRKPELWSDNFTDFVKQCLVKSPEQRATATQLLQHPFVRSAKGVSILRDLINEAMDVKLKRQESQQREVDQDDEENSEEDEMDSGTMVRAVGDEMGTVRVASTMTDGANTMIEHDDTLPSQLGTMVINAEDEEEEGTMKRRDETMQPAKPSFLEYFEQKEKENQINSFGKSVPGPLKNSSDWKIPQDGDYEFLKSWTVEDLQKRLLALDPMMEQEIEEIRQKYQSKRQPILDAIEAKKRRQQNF
Chain of cGMP-dependent protein kinase 2 (Homo sapiens) (Q13237 whole entry): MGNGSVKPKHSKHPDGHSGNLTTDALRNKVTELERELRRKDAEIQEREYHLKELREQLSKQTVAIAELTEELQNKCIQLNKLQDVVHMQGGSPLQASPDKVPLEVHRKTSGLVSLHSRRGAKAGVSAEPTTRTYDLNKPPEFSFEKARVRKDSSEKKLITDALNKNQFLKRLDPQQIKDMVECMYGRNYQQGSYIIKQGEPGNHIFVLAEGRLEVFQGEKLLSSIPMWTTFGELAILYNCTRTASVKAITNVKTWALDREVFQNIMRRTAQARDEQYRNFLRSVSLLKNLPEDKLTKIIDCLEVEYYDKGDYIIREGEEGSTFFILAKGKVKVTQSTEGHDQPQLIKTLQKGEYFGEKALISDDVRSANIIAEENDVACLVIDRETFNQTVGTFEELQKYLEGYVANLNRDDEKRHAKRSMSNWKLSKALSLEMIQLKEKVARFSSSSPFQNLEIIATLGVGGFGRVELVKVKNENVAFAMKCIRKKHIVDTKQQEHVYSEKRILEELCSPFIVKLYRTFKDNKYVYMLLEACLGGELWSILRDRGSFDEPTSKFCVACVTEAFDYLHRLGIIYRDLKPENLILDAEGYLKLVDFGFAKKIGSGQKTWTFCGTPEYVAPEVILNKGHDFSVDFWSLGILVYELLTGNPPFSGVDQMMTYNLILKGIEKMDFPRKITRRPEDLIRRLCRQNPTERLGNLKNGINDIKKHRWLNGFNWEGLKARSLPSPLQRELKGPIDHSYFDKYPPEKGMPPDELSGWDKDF

On to `CCN1CCN(Cc2ccc(NC(=O)c3ccc(C)c(/C=C/c4cnc5[nH]ccc5c4OC)c3)cc2C(F)(F)F)CC1`, for which the inhibition in experiment [1] worked out at 0.6%; in experiment [2] it was 5.5%; in experiment [3], 4.2%; in experiment [5], 24.4%. Besides, the residual activity in experiment [4] was 2%.
Regarding `CCN1CCN(Cc2ccc(NC(=O)c3ccc(C)c(Oc4ccnc5[nH]ccc45)c3)cc2C(F)(F)F)CC1`, the inhibition result in experiment [6] and in [7] was “inactive” each time. The inhibition in experiment [8] was -8.1%.
As for `CNc1cc(Oc2cc(C(=O)Nc3cc(N4CCN(C)CC4)cc(C(F)(F)F)c3)ccc2C)ncn1`, the inhibition in experiment [9] is 1.8%.
